Experiment [1] deals with PHBPU. The experiment can be described thus: Pre-emergence herbicidal action against PHBPU. Type of experiment: in vivo, Pharbitis purpurea. The following applies: dosage 80 g/ha. From the text:
Seeds of monocotyledonous and dicotyledonous weed plants and crop plants are laid out in sandy loam soil in wood-fiber pots and covered with soil. The compounds of the invention, formulated in the form of wettable powders (WP) or as emulsion concentrates (EC), are then applied to the surface of the covering soil in the form of an aqueous suspension or emulsion at a water application rate equivalent to 600 to 800 l/ha, with addition of 0.2% wetting agent. After the treatment, the pots are placed in a greenhouse and kept under good growth conditions for the trial plants. The damage to the test plants is scored visually after a test period of 3 weeks by comparison with untreated controls (herbicidal activity in percent (%): 100% activity=the plants have died, 0% activity=like control plants). […] The tables below illustrate, in an illustrative manner, the post-emergence herbicidal action of the compounds of the invention, the herbicidal activity being stated in percent.

For experiment [2], the system named is DIGSA. The experiment can be described thus: Pre-emergence herbicidal action against DIGSA. The format is in vivo, Digitaria sanguinalis. Put shortly:
(§1)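 Visual rating at 3 weeks vs untreated pots; 0–100% scale, 100% = plants died. Treatment: aqueous WP/EC spray onto covering soil, 600–800 l/ha, 0.2% wetter, seeds in sandy loam.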

Experiment [3] has as its system ALOMY. Briefly: Pre-emergence herbicidal action against ALOMY. The format is in vivo, Alopecurus myosuroides. To be noted: pre-emergence. The method in brief:
as §1

Experiment [4] deals with MATIN. The experiment can be described thus: Pre-emergence herbicidal action against MATIN. The format is in vivo, Matricaria inodora. Put shortly:
as §1

The test system of experiment [5] is AMARE. Briefly: Pre-emergence herbicidal action against AMARE. Type of experiment: in vivo, Amaranthus retroflexus. Put shortly: as §1
Experiment [6] concerns SETVI. The experiment can be described thus: Pre-emergence herbicidal action against SETVI. Type of experiment: in vivo, Setaria viridis. To be noted: dosage 80 g/ha. Put shortly:
as §1

For experiment [7], the system named is SETVI. The experiment can be described thus: Post-emergence herbicidal action against SETVI. The following applies: dosage 20 g/ha. The format is in vivo, Setaria viridis. Put shortly:
(§2)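 Greenhouse pot plants in sandy loam were sprayed at the one-leaf stage, 2 to 3 weeks after sowing, with WP or EC formulations as aqueous suspension or emulsion (600 to 800 l/ha water, 0.2% wetting agent). About 3 weeks later, damage was scored visually against untreated controls as % action (100% = dead, 0% = like control).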

For experiment [8], the system named is MATIN. Briefly: Post-emergence herbicidal action against MATIN. The format is in vivo, Matricaria inodora. Put shortly:
as §2

Experiment [9] has as its system ECHCG. Briefly: Post-emergence herbicidal action against ECHCG. Type of experiment: in vivo, Echinochloa crus-galli. The method in brief: as §2
For experiment [10], the system named is VIOTR. The experiment can be described thus: Pre-emergence herbicidal action against VIOTR. Type of experiment: in vivo, Viola tricolor. The method in brief:
as §1

The test system of another experiment is ABUTH. The experiment can be described thus: Pre-emergence herbicidal action against ABUTH. Type of experiment: in vivo, Abutilon theophrasti. The method in brief: as §1
Experiment [11] concerns VERPE. The experiment can be described thus: Pre-emergence herbicidal action against VERPE. Type of experiment: in vivo, Veronica persica. To be noted: dosage 80 g/ha. Put shortly:
as §1

In experiment [12] the test system is PHBPU. The experiment can be described thus: Post-emergence herbicidal action against PHBPU. The format is in vivo, Pharbitis purpurea. To be noted: dosage 20 g/ha. Put shortly: as §2
Experiment [13] has as its system ECHCG. The experiment can be described thus: Pre-emergence herbicidal action against ECHCG. The format is in vivo, Echinochloa crus-galli. The following applies: 80 g/ha. The method in brief: as §1
The test system of experiment [14] is ALOMY. The experiment can be described thus: Post-emergence herbicidal action against ALOMY. Type of experiment: in vivo, Alopecurus myosuroides. To be noted: dosage 20 g/ha, visual assessment about 3 weeks after treatment vs untreated controls. Put shortly: as §2
The test system of the next experiment is AVEFA. The experiment can be described thus: Pre-emergence herbicidal action against AVEFA. The format is in vivo, Avena fatua. The following applies: 80 g/ha, pre-emergence. The method in brief:
as §1

Experiment [15] concerns AMARE. Briefly: Post-emergence herbicidal action against AMARE. To be noted: 20 g/ha, visual assessment about 3 weeks after treatment, 100% = plants have died, 0% = like control plants. Type of experiment: in vivo, Amaranthus retroflexus. Put shortly: as §2
In experiment [16] the test system is VIOTR. The experiment can be described thus: Post-emergence herbicidal action against VIOTR. Type of experiment: in vivo, Viola tricolor. The following applies: 20 g/ha. The method in brief:
as §2

The test system of experiment [17] is DIGSA. Briefly: Post-emergence herbicidal action against DIGSA. The format is in vivo, Digitaria sanguinalis. The method in brief:
as §2

The test system of experiment [18] is VERPE. Briefly: Post-emergence herbicidal action against VERPE. Type of experiment: in vivo, Veronica persica. The following applies: Veronica persica, 504 h, 20 g/ha. The method in brief:
as §2

Where [19] appears, read: 80 g/ha, scored visually after 3 weeks vs untreated controls (100% = plants have died, 0% = like control plants).
Where [20] appears, read: 20 g/ha, scored visually after 3 weeks vs untreated controls, 100% = plants have died, 0% = like control plants.
[21] abbreviates: dosage 20 g/ha, scored visually after 3 weeks vs untreated controls, 100% = plants have died, 0% = like control plants.

For the compound `CCn1nnnc1NC(=O)c1ccc(Br)c(C(=O)NCC(F)(F)F)c1Cl` [Example 2-181], the “Pre-emergence action against PHBPU in %” value with PHBPU [1] is listed as 80%. In addition, in the experiment with DIGSA [2] (dosage 80 g/ha), the “Pre-emergence action against DIGSA in %” value turned out to be 100%. For the same compound, the “Pre-emergence action against ALOMY (herbicidal activity)” value with ALOMY [3] (setting [19]) turned out to be 80%. In addition, the results for the “Pre-emergence action against MATIN in %” value in the experiment on MATIN [4] (dosage 20 g/ha) and with MATIN [4] (dosage 80 g/ha) were 90% and 100%, respectively. Further, the “Pre-emergence action against AMARE in %” value with AMARE [5] (setting [20]) and in the experiment on AMARE [5] (setting [19]) was 100% throughout. For the same compound, in the experiment on SETVI [6], the “Pre-emergence action against SETVI in %” value was 100%. Further, the “Post-emergence action against SETVI in %” value with SETVI [7] was 90%. Besides, the “Post-emergence action against MATIN in %” value in the experiment with MATIN [8] (dosage 5 g/ha) is 80%; with MATIN [8] (dosage 20 g/ha), 90%. Moreover, the “Post-emergence action against ECHCG in %” value with ECHCG [9] (dosage 20 g/ha) is reported as 90%. Further, the “Pre-emergence action against VIOTR in %” value in the experiment with VIOTR [10] (dosage 80 g/ha) is 80%. The “Pre-emergence action against ABUTH (herbicidal activity)” value in the experiment on ABUTH (setting [19]) was 100%. Besides, the “Pre-emergence action against ABUTH (herbicidal activity in percent)” value with ABUTH (setting [21]) was found to be 100%. Further, in the experiment on VERPE [11], the “Pre-emergence action against VERPE in %” value is 100%. In the experiment with PHBPU [12], the “Post-emergence action against PHBPU in %” value stood at 90%. The “Pre-emergence action against ECHCG in %” value with ECHCG [13] turned out to be 100%. Further, in the experiment on ALOMY [14], the “Post-emergence action against ALOMY in %” value was 90%. In addition, in the experiment on AVEFA, the “Pre-emergence action against AVEFA in %” value was 90%.

Take `CCn1nnnc1NC(=O)c1ccc(C(F)F)c(C(=O)NCC2CC2)c1Br` [Example 2-228]: the “Post-emergence action at 20 g/ha against AMARE in %” value with AMARE [15] is listed as 90%. Also, the “Pre-emergence action against PHBPU in %” value with PHBPU [1] is reported as 100%. In addition, the “Pre-emergence action against DIGSA in %” value in the experiment on DIGSA [2] (dosage 20 g/ha) and in the experiment with DIGSA [2] (dosage 80 g/ha) was 100% throughout. The “Pre-emergence action against ALOMY (herbicidal activity)” value in the experiment on ALOMY [3] (setting [19]) was determined as 80%. Moreover, the “Pre-emergence action against MATIN in %” value in the experiment on MATIN [4] (dosage 20 g/ha) stood at 90%; with MATIN [4] (dosage 80 g/ha) it was 100%. For the same compound, the “Pre-emergence action against AMARE in %” value with AMARE [5] (setting [20]) and in the experiment on AMARE [5] (setting [19]) was 100% throughout. In addition, the “Pre-emergence action against SETVI in %” value in the experiment on SETVI [6] amounted to 90%. In addition, in the experiment on MATIN [8] (dosage 20 g/ha), the “Post-emergence action against MATIN in %” value was found to be 80%. For the same compound, in the experiment on VIOTR [16], the “Post-emergence action against VIOTR in %” value is 80%. The results for the “Post-emergence action against ECHCG in %” value with ECHCG [9] (dosage 5 g/ha) and in the experiment with ECHCG [9] (dosage 20 g/ha) were 80% and 90%, respectively. Further, the “Pre-emergence action against VIOTR in %” value in the experiment on VIOTR [10] (dosage 20 g/ha) and in the experiment on VIOTR [10] (dosage 80 g/ha) was 100% each time. Besides, the “Pre-emergence action against ABUTH (herbicidal activity)” value in the experiment on ABUTH (setting [19]) came to 100%. Moreover, in the experiment on ABUTH (setting [21]), the “Pre-emergence action against ABUTH (herbicidal activity in percent)” value worked out at 100%. The “Pre-emergence action against VERPE in %” value in the experiment on VERPE [11] came to 90%. The “Post-emergence action against PHBPU in %” value with PHBPU [12] amounted to 80%. Further, the “Pre-emergence action against ECHCG in %” value with ECHCG [13] is on record as 100%. The “Post-emergence action against ALOMY in %” value in the experiment with ALOMY [14] is 80%. The “Pre-emergence action against AVEFA in %” value in the experiment with AVEFA came out at 80%. Further, the “Post-emergence action against DIGSA in %” value in the experiment with DIGSA [17] (5 g/ha) is listed as 80%. The “Post-emergence action against DIGSA” value in the experiment with DIGSA [17] (20 g/ha) came out at 80%.

For the compound `Cc1nnc(NC(=O)c2ccc(C(F)(F)F)c(C(=O)NCC(F)(F)F)c2Cl)o1` [Example 6-120], the pest or weed control at 20 g/ha was determined as 90% with AMARE [15] (Amaranthus retroflexus, 504 h); 80% in the experiment on VERPE [18]; 80% in the experiment with ALOMY [3] (Alopecurus myosuroides, 504 h, 20 g/ha, scored visually after 3 weeks, 100% = plants have died, 0% = like control plants); 90% in the experiment with MATIN [4] (Tripleurospermum inodorum, 504 h, dosage 20 g/ha); 100% in the experiment with AMARE [5] (Amaranthus retroflexus, 504 h, 20 g/ha, scored visually after 3 weeks vs untreated controls, 100% = plants have died, 0% = like control plants); 90% in the experiment with ECHCG [9] (Echinochloa crus-galli, 504 h, dosage 20 g/ha). The pest or weed control at 20 g/ha in the experiment on ABUTH (Abutilon theophrasti, 504 h, dosage 20 g/ha, scored visually after 3 weeks vs untreated controls, 100% = plants have died, 0% = like control plants, read-out: Pre-emergence action against ABUTH (herbicidal activity in percent)) was determined as 80%; with PHBPU [12] (Ipomoea purpurea, 504 h) it was 90%. For the same compound, the pest or weed control at 80 g/ha in the experiment with PHBPU [1] (Ipomoea purpurea, 504 h) was 80%; in the experiment on DIGSA [2] (Digitaria sanguinalis, 504 h, dosage 80 g/ha) it was 90%; in the experiment on ALOMY [3] (Alopecurus myosuroides, 504 h, 80 g/ha, scored visually after 3 weeks vs untreated controls (100% = plants have died, 0% = like control plants)) it was 90%; in the experiment on MATIN [4] (Tripleurospermum inodorum, 504 h, dosage 80 g/ha), 90%; with AMARE [5] (Amaranthus retroflexus, 504 h, 80 g/ha, scored visually after 3 weeks vs untreated controls, 100% = plants have died, 0% = like control plants), 100%; in the experiment with SETVI [6] (Setaria viridis, 504 h) it was 100%. Besides, the pest or weed control at 80 g/ha in the experiment on VIOTR [10] (Viola tricolor, 504 h, dosage 80 g/ha) was 90%; in the experiment on ABUTH (Abutilon theophrasti, 504 h, 80 g/ha, scored visually after 3 weeks vs untreated controls (100% = plants have died, 0% = like control plants)), 100%; with ECHCG [13] (Echinochloa crus-galli, 504 h), 100%; in the experiment with AVEFA (Avena fatua, 504 h), 90%.

(Values after US12655116B2, “Substituted isophthalic acid diamides” (Bayer Aktiengesellschaft, priority 2020, dated 2026).)
